From US10988477B2 (Merck Patent GmbH, priority 2018, dated 2021)
Read-outs that look alike come from different tables or passages of the source.

Legend:
[1] = molecular target: intracellular GCN2 (phosphorylation of the GCN2 substrate eIF2α) (Homo sapiens, UniProt Q9P2K8); assay: GCN2 cellular inhibition assay (AlphaScreen SureFire P-eIF2α Ser51, borrelidin-treated U2OS cells); assay type: cell-based
Method in brief: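 Borrelidin at 10 μM is added to U2OS cells immediately after compound (4-fold dilution series, 40 μM top final) for 1 h at 37 °C. Phosphorylated eIF2α Ser51 in lysates is quantified by AlphaScreen and expressed as percent inhibition against borrelidin-stimulated controls.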

[2] = molecular target: GCN2 kinase (Homo sapiens, UniProt Q9P2K8); assay: GCN2 enzyme inhibition assay (Transcreener ADP2 fluorescence polarization); assay type: biochemical; conditions: 280 μM ATP, 4 nM GCN2 kinase; for IC50: compounds of Formula II; for Ki: compounds of Formula III
GCN2 kinase, sequence (Q9P2K8 whole entry): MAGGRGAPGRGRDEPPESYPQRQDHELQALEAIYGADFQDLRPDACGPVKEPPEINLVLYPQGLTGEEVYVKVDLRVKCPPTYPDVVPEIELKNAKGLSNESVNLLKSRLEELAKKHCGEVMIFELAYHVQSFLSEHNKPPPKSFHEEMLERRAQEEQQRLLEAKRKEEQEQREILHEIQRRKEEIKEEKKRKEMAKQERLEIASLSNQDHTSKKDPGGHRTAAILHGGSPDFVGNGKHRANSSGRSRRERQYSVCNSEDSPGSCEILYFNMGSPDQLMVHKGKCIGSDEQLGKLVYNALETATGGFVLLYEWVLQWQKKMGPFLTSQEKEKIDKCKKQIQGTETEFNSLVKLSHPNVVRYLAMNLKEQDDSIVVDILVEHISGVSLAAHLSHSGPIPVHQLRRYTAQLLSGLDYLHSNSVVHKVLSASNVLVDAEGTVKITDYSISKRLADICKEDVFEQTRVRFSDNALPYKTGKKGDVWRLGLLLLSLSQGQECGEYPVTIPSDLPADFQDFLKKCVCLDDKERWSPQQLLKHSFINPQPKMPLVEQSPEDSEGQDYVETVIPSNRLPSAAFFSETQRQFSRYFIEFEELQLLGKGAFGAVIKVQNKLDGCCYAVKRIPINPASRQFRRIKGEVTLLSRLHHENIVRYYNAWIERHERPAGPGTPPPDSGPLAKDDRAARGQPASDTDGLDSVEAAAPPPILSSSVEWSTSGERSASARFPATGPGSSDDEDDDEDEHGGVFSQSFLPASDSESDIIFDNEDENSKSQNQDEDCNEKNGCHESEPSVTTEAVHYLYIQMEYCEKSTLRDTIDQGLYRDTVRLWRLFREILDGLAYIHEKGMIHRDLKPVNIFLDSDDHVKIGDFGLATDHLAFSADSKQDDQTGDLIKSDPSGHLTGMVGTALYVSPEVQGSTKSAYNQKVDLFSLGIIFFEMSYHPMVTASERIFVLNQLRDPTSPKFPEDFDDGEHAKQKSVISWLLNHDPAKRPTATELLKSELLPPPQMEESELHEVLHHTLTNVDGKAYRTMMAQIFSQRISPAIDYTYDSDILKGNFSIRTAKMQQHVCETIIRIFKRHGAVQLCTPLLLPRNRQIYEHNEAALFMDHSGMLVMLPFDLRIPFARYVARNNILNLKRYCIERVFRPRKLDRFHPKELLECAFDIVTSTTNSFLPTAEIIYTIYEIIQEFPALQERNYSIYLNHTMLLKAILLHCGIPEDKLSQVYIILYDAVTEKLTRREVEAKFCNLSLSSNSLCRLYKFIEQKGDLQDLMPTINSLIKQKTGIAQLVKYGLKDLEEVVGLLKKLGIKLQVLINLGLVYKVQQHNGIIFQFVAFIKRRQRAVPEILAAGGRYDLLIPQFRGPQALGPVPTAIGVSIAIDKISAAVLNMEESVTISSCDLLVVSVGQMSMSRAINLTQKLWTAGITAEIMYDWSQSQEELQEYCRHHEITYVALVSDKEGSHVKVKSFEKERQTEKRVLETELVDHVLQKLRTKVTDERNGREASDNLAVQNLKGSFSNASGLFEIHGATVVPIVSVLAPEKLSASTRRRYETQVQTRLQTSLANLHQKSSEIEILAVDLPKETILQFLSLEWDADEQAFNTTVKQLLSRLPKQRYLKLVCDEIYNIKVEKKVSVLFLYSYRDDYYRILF
Method in brief: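 Inhibition of 4 nM GCN2 was measured with compound up to 8 μM final, ATP 280 μM and (RS)7 peptide 200 μM over a 1 h, 25 °C reaction. ADP FP readout; IC50 and Ki(app) calculated from percent inhibition.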

[3] = compounds of Formula II, biomarker assay, phosphorylated eIF2α Ser51 in borrelidin-treated U2OS cells
[4] = compounds of Formula III, U2OS cells, 10 μM borrelidin, 1 h, read-out: GCN2 Biomarker (IC50)

intracellular GCN2 (phosphorylation of the GCN2 substrate eIF2α), sequence (Q9P2K8 whole entry): as above

Row | IC50 [1, 3] [nM] | IC50 [2] [nM] | IC50 [1, 4] [nM] | Ki [2] [nM] | SMILES
1 | 500 to 5000 | 10 to 1000 | – | – | C[C@H]1[C@H](CNS(C)(=O)=O)N(C2CC2)CCN1c1cc(-c2cnc3ccc(C(F)F)nn23)ncn1 [II-769, N-(((2S,3S)-1-cyclopropyl-4-(6-(6-(difluoromethyl)imidazo[1,2-b]pyridazin-3-yl)pyrimidin-4-yl)-3-methylpiperazin-2-yl)methyl)methanesulfonamide]
2 | 500 to 5000 | 10 to 1000 | – | – | C[C@@H]1[C@@H](CNS(C)(=O)=O)N(C2CC2)CCN1c1cc(-c2cnc3ccc(C(F)F)nn23)ncn1 [II-770, N-(((2R,3R)-1-cyclopropyl-4-(6-(6-(difluoromethyl)imidazo[1,2-b]pyridazin-3-yl)pyrimidin-4-yl)-3-methylpiperazin-2-yl)methyl)methanesulfonamide]
3 | – | – | > 5000 | 10 to 1000 | CC(=O)N1CCN(c2cc(-c3cnn4ccc(C(F)F)nc34)ncn2)CC1 [III-1, 1-[4-[6-[5-(Difluoromethyl)pyrazolo[1,5-a]pyrimidin-3-yl]pyrimidin-4-yl]piperazin-1-yl]ethanone]
4 | – | – | < 500 | < 10 | CS(=O)(=O)NCC1CCCN(c2cc(-c3cnn4ccc(C(F)F)nc34)ncn2)C1 (stereo not drawn) [III-2, N-[[1-[6-[5-(Difluoromethyl)pyrazolo[1,5-a]pyrimidin-3-yl]pyrimidin-4-yl]-3-piperidyl]methyl]methanesulfonamide]
5 | – | – | > 5000 | 10 to 1000 | O=C1CCN(c2cc(-c3cnn4ccc(C(F)(F)F)nc34)ncn2)CCN1 [III-3, 1-[6-[5-(Trifluoromethyl)pyrazolo[1,5-a]pyrimidin-3-yl]pyrimidin-4-yl]-1,4-diazepan-5-one]
6 | – | – | < 500 | < 10 | CS(=O)(=O)NC[C@@H]1CN(c2cc(-c3cnn4ccc(C(F)F)nc34)ncn2)CCO1 [III-4, N-[[(2S)-4-[6-[5-(Difluoromethyl)pyrazolo[1,5-a]pyrimidin-3-yl]pyrimidin-4-yl]morpholin-2-yl]methyl]methanesulfonamide]
7 | – | – | > 5000 | 10 to 1000 | CS(=O)(=O)NC[C@H]1CN(c2cc(-c3cnn4cc(F)c(C(F)F)nc34)ncn2)CCO1 [III-5, N-[[(2R)-4-[6-[5-(Difluoromethyl)-6-fluoro-pyrazolo[1,5-a]pyrimidin-3-yl]pyrimidin-4-yl]morpholin-2-yl]methyl]methanesulfonamide]
8 | – | – | 500 to 5000 | < 10 | CS(=O)(=O)NC[C@@H]1CN(c2cc(-c3cnn4ccc(C(F)F)nc34)ccn2)CCO1 [III-6, N-[[(2S)-4-[4-[5-(Difluoromethyl)pyrazolo[1,5-a]pyrimidin-3-yl]-2-pyridyl]morpholin-2-yl]methyl]methanesulfonamide]
9 | – | – | 500 to 5000 | < 10 | CC1CN(c2cc(-c3cnn4ccc(C(F)F)nc34)ccn2)CC(CNS(C)(=O)=O)C1(F)F (stereo not drawn) [III-7, N-[[1-[4-[5-(Difluoromethyl)pyrazolo[1,5-a]pyrimidin-3-yl]-2-pyridyl]-4,4-difluoro-5-methyl-3-piperidyl]methyl]methanesulfonamide]
10 | – | – | < 500 | < 10 | CS(=O)(=O)NC[C@@H]1CN(c2cc(-c3cnn4cc(F)c(C(F)F)nc34)ncn2)CCO1 [III-10, N-[[(2S)-4-[6-[5-(Difluoromethyl)-6-fluoro-pyrazolo[1,5-a]pyrimidin-3-yl]pyrimidin-4-yl]morpholin-2-yl]methyl]methanesulfonamide]
11 | – | – | < 500 | < 10 | C[C@H]1CN(c2cc(-c3cnn4cc(F)c(C(F)F)nc34)ncn2)C[C@@H](CNS(C)(=O)=O)C1(F)F [III-11, N-[[(3S,5S)-1-[6-[5-(Difluoromethyl)-6-fluoro-pyrazolo[1,5-a]pyrimidin-3-yl]pyrimidin-4-yl]-4,4-difluoro-5-methyl-3-piperidyl]methyl]methanesulfonamide]
12 | – | – | < 500 | < 10 | C[C@H]1CN(c2cc(-c3cnn4ccc(C(F)F)nc34)ncn2)C[C@@H](CNS(C)(=O)=O)C1(F)F [III-12, N-[[(3S,5S)-1-[6-[5-(Difluoromethyl)pyrazolo[1,5-a]pyrimidin-3-yl]pyrimidin-4-yl]-4,4-difluoro-5-methyl-3-piperidyl]methyl]methanesulfonamide]
